Activity calls are given as the source filed them. The calls are words filed in the database; no cut-off is given here.
Legend:
Hepatitis C virus [1] = test: Antiviral activity against HCV psuedoparticles infected in human Huh7 cells assessed as inhibition of virus entry at 1 to 5 uM using Bright Glo reagent after 72 hrs by Luciferase reporter gene assay; assay type: functional
[2] = system: Vesicular stomatitis virus; test: Antiviral activity against VSV psuedoparticles infected in human Huh7 cells assessed as inhibition of virus entry at 1 to 5 uM using Bright Glo reagent after 72 hrs by Luciferase reporter gene assay; assay type: functional, organism-based; conditions: Huh-7
Hepatitis C virus [3] = test: Antiviral activity against HCV psuedoparticles infected in human Huh7 cells assessed as inhibition of virus entry at 10 uM using Bright Glo reagent after 72 hrs by Luciferase reporter gene assay; assay type: functional, Hepacivirus hominis, Huh-7; design: scale not given: the % may be the effect or the level left

SMILES	Activity (Hepatitis C virus [1]; Hepacivirus hominis, Huh-7)	Activity [2]	Activity (Hepatitis C virus [1]) [%]	Activity (Hepatitis C virus [3]) [%]
CC1(C)CC[C@]2(C(=O)O)[C@H](O)C[C@]3(C)[C@H](C(=O)C=C4[C@@]5(C)CC[C@H](O)C(C)(C)[C@@H]5CC[C@]43C)[C@@H]2C1	Active	inactive		
CC1(C)CC[C@]2(C(=O)O)[C@H](O)C[C@]3(C)C(=CC[C@@H]4[C@@]5(C)CC[C@H](O)C(C)(C)[C@@H]5CC[C@]43C)[C@H]2C1 [ECHINOCYSTIC ACID]			90	
CC1(C)CC[C@]2(C(=O)O)[C@H](O)C[C@]3(C)[C@H](C(=O)OC[C@@H]4[C@@]5(C)CCC(=O)OC(C)(C)[C@@H]5CC[C@]43C)[C@@H]2C1	Active	inactive		
C[C@H]1[C@H](C)CC[C@]2(C(=O)O)CC[C@]3(C)C(=CC[C@@H]4[C@@]5(C)CC[C@H](O)C(C)(C)[C@@H]5CC[C@]43C)[C@H]12 [URSOLIC ACID]				30
CC1(C)CC[C@]2(C(=O)O)[C@H](O)C[C@]3(C)[C@H](OC(=O)C[C@@H]4[C@@]5(C)CCC(=O)OC(C)(C)[C@@H]5CC[C@]43C)[C@@H]2C1	Active	inactive		
CC1(C)CC[C@]2(C(=O)O)[C@H](O)C[C@]3(C)[C@H](OC(=O)C[C@@H]4[C@@](C)(CCC(=O)O)[C@H](C(C)(C)O)CC[C@]43C)[C@@H]2C1	Active	inactive		
CC1(C)CC[C@]2(C(=O)O)[C@H](O)C[C@]3(C)[C@H](OC(=O)C[C@@H]4[C@@]5(C)CC[C@H](O)C(C)(C)[C@@H]5CC[C@]43C)[C@@H]2C1	Active	inactive		
CC1(C)CC[C@]2(C(=O)O)[C@H](O)C[C@]3(C)[C@H](C(=O)C[C@@H]4[C@@]5(C)CCC(=O)OC(C)(C)[C@@H]5CC[C@]43C)[C@@H]2C1	Active	inactive		
CC1(C)CC[C@]2(CO)[C@H](O)C[C@]3(C)[C@H](C(O)C[C@@H]4[C@@](C)(CCCO)[C@H](C(C)(C)O)CC[C@]43C)[C@@H]2C1 (stereo not given in full)	Active	inactive		
CC1(C)CC[C@]2(CO)[C@H](O)C[C@@](C)([C@]3(C)CC[C@H]4C(C)(C)[C@@H](O)CC[C@]4(C)C3CCO)C(O)[C@@H]2C1 (stereo not given in full)	Active	inactive		
CC1(C)CC[C@]2(C(=O)O)[C@H](O)C[C@]3(C)[C@H](C(=O)OC[C@@H]4[C@@]5(C)CC[C@H](O)C(C)(C)[C@@H]5CC[C@]43C)[C@@H]2C1	Active	inactive		
COC(=O)[C@]12CCC(C)(C)C[C@H]1[C@H]1C(=O)OC[C@@H]3[C@@]4(C)CC[C@H](O)C(C)(C)[C@@H]4CC[C@@]3(C)[C@]1(C)C[C@H]2O	Active	inactive		
CC1(C)CC[C@]2(C(=O)O)[C@H](O)C[C@]3(C)[C@H](C(=O)C[C@@H]4[C@@](C)(CCC(=O)O)[C@H](C(C)(C)O)CC[C@]43C)[C@@H]2C1	Active	inactive		
C=C(C)[C@@H]1CC[C@]2(C(=O)O)CC[C@]3(C)[C@H](CC[C@@H]4[C@@]5(C)CC[C@H](O)C(C)(C)[C@@H]5CC[C@]43C)[C@@H]12 [BETULINIC ACID]				75
CC1(C)[C@@H](O)CC[C@]2(C)[C@H]3C(=O)C=C4[C@@H]5C[C@@](C)(C(=O)O)CC[C@]5(C)CC[C@@]4(C)[C@]3(C)CC[C@@H]12 [ENOXOLONE]				5
COC(=O)[C@]12CCC(C)(C)C[C@H]1[C@H]1OC(=O)C[C@@H]3[C@@]4(C)CC[C@H](O)C(C)(C)[C@@H]4CC[C@@]3(C)[C@]1(C)C[C@H]2O	Active	inactive		
CC1(C)CC[C@]2(C(=O)O)[C@H](O)C[C@]3(C)[C@H](C(=O)OC[C@@H]4[C@@](C)(CCC(=O)O)[C@H](C(C)(C)O)CC[C@]43C)[C@@H]2C1	Active	inactive		

Source: ChEMBL document CHEMBL3616443, “Synthesis and biological evaluation of ring A and/or C expansion and opening echinocystic acid derivatives for anti-HCV entry inhibitors” (2015)
